{
  "source": "patent US7109174B2",
  "about": "“Anticonvulsant derivatives useful for preventing the development of type II diabetes mellitus and syndrome X” (Ortho-McNeil Pharmaceutical, Inc., priority 2000, dated 2006)",
  "test_system": "Female db/db mice",
  "test": "Oral glucose tolerance test (fasted) in female db/db mice after 11 days oral dosing",
  "assay_type": "in vivo",
  "details": "for Oral Glucose Tolerance Test (fasted) Plasma Glucose: ± sem",
  "method": "Female db/db mice (C57BLK S/J-m^+/^+ Lepr^db Jackson Labs, Bar Harbor, Me.), 7–8 weeks of age, were housed four per cage in solid-bottomed shoe box cages. Room temperature was maintained at 68–72° F. and humidity at 50–65%. Room lighting was on a 12-hour light/12-hour dark cycle. The mice were maintained on NIH Rat and Mouse/Auto 6F reduced fat diet #5K52 (PMI Nutrition Int'l Inc.). Food and water were supplied ad libitum.\nTest compound and vehicle were dosed orally and prepared as suspensions in 0.5% hydroxypropylmethylcellulose (Dow Chemical, Midland, Mich.). The dosing volume was 10 mL/kg of body weight.\nDifferent groups of female db/db mice (7–8/group) were orally gavaged daily for 11 days with either 0.5% methylcellulose in dH2O (vehicle), topiramate at 30 or 100 mg/kg/day or 2,3:4,5-bis-O-(1-methylethylidene)-β-L-fructopyranose sulfamate (hereinafter referred to as Compound V) at 30 or 100 mg/kg/day. On day 10, the animals were fasted for 20 hours before being tested for oral glucose tolerance (OGT). On day 11, four hours after the final dose for each group, an oral glucose tolerance test (OGTT) was performed by oral glucose administration of 2 g/kg. Animals were bled through tail clip at 0 (before glucose), 30, 60 and 120 min after glucose challenge. The blood samples were collected into heparinized CB microvettes and then put on ice. The plasma samples will be assayed for plasma glucose determination by using SIGMA DIAGNOSTICS Trinder reagent (Sigma, St. Louis, Mo.). Statistical analysis was performed using the program Instat (Graphpad, Monrovia, Calif.) and performing one-way ANOVA with a Dunnett's multiple comparison test.\nFollowing the above described procedure, the effect of topiramate and compound V on oral glucose tolerance in female db/db mice, 7 mice/group, was determined, with results as listed in Table 9. The abbreviation N represents the number of animals per study group.",
  "data": [
    {"smiles": "CC1(C)O[C@H]2[C@H](CO[C@]3(COS(N)(=O)=O)OC(C)(C)O[C@H]23)O1", "note": "[Compound V, 2,3:4,5-bis-O-(1-methylethylidene)-β-L-fructopyranose sulfamate]", "values": [
      {"measurement": "Oral Glucose Tolerance Test (fasted) Plasma Glucose", "setting": "30 mg/kg/day, 0 min (before glucose 2 g/kg)", "result": "221 ± 22.9", "unit": "mg/dL"},
      {"measurement": "Oral Glucose Tolerance Test (fasted) Plasma Glucose", "setting": "30 mg/kg/day, 30 min after glucose 2 g/kg", "result": "441 ± 35.7", "unit": "mg/dL"},
      {"measurement": "Oral Glucose Tolerance Test (fasted) Plasma Glucose", "setting": "30 mg/kg/day, 60 min after glucose 2 g/kg", "result": "244 ± 21.6", "unit": "mg/dL"},
      {"measurement": "Oral Glucose Tolerance Test (fasted) Plasma Glucose", "setting": "30 mg/kg/day, 120 min after glucose 2 g/kg", "result": "213 ± 28.7", "unit": "mg/dL"},
      {"measurement": "Oral Glucose Tolerance Test (fasted) Plasma Glucose", "setting": "100 mg/kg/day, 0 min (before glucose 2 g/kg)", "result": "152 ± 27.3", "unit": "mg/dL"},
      {"measurement": "Oral Glucose Tolerance Test (fasted) Plasma Glucose", "setting": "100 mg/kg/day, 30 min after glucose 2 g/kg", "result": "449 ± 42.6", "unit": "mg/dL"},
      {"measurement": "Oral Glucose Tolerance Test (fasted) Plasma Glucose", "setting": "100 mg/kg/day, 60 min after glucose 2 g/kg", "result": "319 ± 52.7", "unit": "mg/dL"},
      {"measurement": "Oral Glucose Tolerance Test (fasted) Plasma Glucose", "setting": "100 mg/kg/day, 120 min after glucose 2 g/kg", "result": "153 ± 33", "unit": "mg/dL"},
      {"measurement": "elevated blood glucose levels induced by oral glucose challenge", "setting": "30 or 100 mg/kg/day", "result": "suppressed"},
      {"measurement": "fasting glucose levels", "setting": "30 or 100 mg/kg/day", "result": "decreased"}
    ]}
  ]
}
